Laboratory results published in paper PMC13538172, “Zonisamide nanodiamonds for brain targeting: A comprehensive study utilising in silico, in vitro, in vivo, and molecular investigation for successful nose-to-brain delivery for epilepsy management” (Drug Delivery and Translational Research, 2025).

Columns and labels:
[1] = In vitro drug release, Franz diffusion cell with dialysis bag; type: physicochemical; details: PBS pH 7.4, 37 ± 0.5 °C
Description: The in vitro release study utilized a Franz diffusion cell with a diffusion area of 1.77 cm^2 [44]. The receptor compartment contained 7.5 ml phosphate buffer (PBS) pH 7.4, simulating the pH at the release site in the brain [45, 46], and the system was equilibrated at 37 ± 0.5 °C by a circulating water jacket. […] At certain time intervals (0, 0.25, 0.5, 0.75, 1, 2, 4, 8, 12, 24, 36, 48, and 72 h), 0.5 ml samples were aliquoted from the receptor compartment and replaced with equal volumes of fresh medium to maintain a constant volume. Samples were filtered using a 0.22 μm filter and analyzed spectrophotometrically as previously described. In order to understand the barrier presented by the dialysis membrane, the in vitro release study of unformulated ZNS (free drug) solution in distilled water of the same concentration (1mg/ml w/v) was carried out similarly in a separate setup, all release experiments were done in triplicates, and the release data were fitted to various release kinetic models: zero, first, Higuchi diffusion, and Hixson–Crowell and Korsmeyer–Peppas models.

[2] = test system: Sirtuin 1 (Sirt-1); assay: Hippocampal SIRT-1 expression by quantitative RT-PCR in TLE rats; type: in vivo; details: relative quantitation 2-∆∆Ct; TLE control 0.16 fold of normal
Description: Temporal lobe epilepsy (TLE) was induced in rats using the pilocarpine model according to the method of […] et al.. Prior to the experiment, rats were housed in plastic cages at October University for Modern Science and Arts under controlled environmental conditions (temperatures of 25°±3°C and 50% humidity) with free access to water and softened standard pellet chow. The rats were injected with pilocarpine (300 mg/kg; i.p.) to induce status epilepticus (SE). Atropine (1 mg/kg; i.p.) was injected 30 minutes before pilocarpine injection to antagonize the peripheral muscarinic activity. SE was defined using the modified Racine scale by observing seizure severity categorized as stages 4 and 5. […] For quantitative RT-PCR analysis of miR-199, Sirtuin 1 (Sirt-1) and long non-coding RNA of plasmacytoma variant translocation1 (LncRNA PVT-1), RNA was isolated from the brain hippocampus tissue with direct-zol RNA Miniprep Plus (CAT no. R2072) and reverse-transcribed into cDNA with the reverse transcriptase (CAT no. 12594100) according to the manufacturer instructions. […] Quantitative reverse transcriptase PCR was performed using a Power SYBR Green PCR Master Mix (CFX96 Instrument; Bio-Rad, USA). The relative quantitation (RQ) of each target gene is quantified according to the 2-ΔΔCt method calculation.

[3] = test system: experimentally induced TLE in rats; assay: EEG and behavioural seizures in pilocarpine-induced temporal lobe epilepsy (TLE); type: in vivo, adult male Wistar albino rats; details: intranasal 16 mg/kg/day of ZNS for 7 days
Description: Temporal lobe epilepsy (TLE) was induced in rats using the pilocarpine model according to the method of Arshad et al.. Prior to the experiment, rats were housed in plastic cages at October University for Modern Science and Arts under controlled environmental conditions (temperatures of 25°±3°C and 50% humidity) with free access to water and softened standard pellet chow. The rats were injected with pilocarpine (300 mg/kg; i.p.) to induce status epilepticus (SE). Atropine (1 mg/kg; i.p.) was injected 30 minutes before pilocarpine injection to antagonize the peripheral muscarinic activity. SE was defined using the modified Racine scale by observing seizure severity categorized as stages 4 and 5. […] The SE seizures were left to last for 3 hours to induce hippocampus damage, after which diazepam (10 mg/kg; i.p.) was injected to attenuate the seizures. Lubricant ophthalmic gel was applied with a cotton swab to each eye to prevent the corneas from drying out during the seizures. The rats were hydrated with sterile Ringer's lactate injections (1 mL, i.p.) for 3 days post-SE induction. Animal welfare assessments were conducted multiple times per day for several days after the induction of SE. The Pilocarpine-inducted rats began to develop spontaneous recurrent seizures (SRS) as a characteristic of TLE within 3 weeks, after which the treatments were injected for 7 days, and the in vivo pharmacodynamic investigation was conducted. […]
At the end of the experiment, SRS was monitored using a video recorder (6 hours/day) and scored according to the Racine scale. In addition, the brain activity was recorded using an electroencephalogram (EEG, powerlab module, which consists of Power-lab/8sp and Animal Bio-Amplifier, Australia). […]

For NS(=O)(=O)Cc1noc2ccccc12 [ZNS, Zonisamide], the “ZNS released in 2 hours” value [1] was 96.9±2.1%, the “hippocampal SIRT-1 level” value [2] was 0.47 folds and the “maximum spike amplitude during the SRS” value ([3]; n = 8) was 0.4 ± 0.1 mV. For the same compound, the “mean duration of single SRS (epileptogenic ictal discharge in EEG)” value ([3]; n = 8) was 96.5 ± 2.9 s and the “incidence of motor seizures per 6 h” value ([3]; video recording 6 hours per day) was 3.5 ± 0.5.
